In patent US20100279941A1, “CD36 MODULATION AND USES THEREOF” (priority 2009, published 2010):

Key:
Format in all cases: in vivo
[1] = system: CD36^+/+ and CD36^−/− mice; experiment: Myocardial NEFA uptake by μPET with [18F]-FTHA; settings: 6 hours reperfusion, in words
Procedure: (§1) Experimental model of IHD: Transient left coronary artery ligation in vivo. Mice were subjected to a transient LCAL surgery as described before, with minor modifications [Tarnayski et al., 2004]. Mice were injected i.p. with buprenorphine (0.05 mg/kg) and placed in an induction chamber with inhalation anesthesia comprised of 3% isoflurane mixed with 100% oxygen. Mice were intubated with a blunt ended 20-gauge catheter into the trachea via the mouth and mechanically ventilated at a tidal volume of 7 ml/kg at 130 respirations/min with a MiniVent™ mouse ventilator (model 845, Harvard Apparatus, Saint-Laurent, QC, Canada). Anesthesia was maintained with 1.5-2% isoflurane and the animals were kept warm using electrical heating pads during the surgical procedure. The chest was opened by a horizontal incision through the skin and muscle layers at the third intercostal space exposing the left side of the heart. […] Visual blanching distal to the coronary occlusion confirmed myocardial ischaemia. Lidocaine (6 mg/kg) was administered i.p. just following occlusion and prior to reperfusion. After 30 minutes, the PE10 tubing was removed allowing reperfusion. The lungs were reinflated and the chest wound closed layer by layer before extubation. At 6 hours following reperfusion, mice were anesthetized (isoflurane), a blood sample withdrawn, and the heart arrested in diastole by an intravenous injection of 1 M KCl (0.5 mL). Hearts were immediately frozen at −80° C. unless otherwise stated.
Imaging experiments. Imaging experiments were performed with the avalanche photodiode-based small animal PET scanner (μPET) [Lecomte et al., 1996]. […]
(§2) Imaging Data Analysis. For [^11C]-acetate images, dynamic series of 25 frames each were sorted out whereas 27 frames were used for ^18FDG and ^18FTHA imaging, and were reconstructed and analyzed using multicompartmental analysis [Menard et al., 2009] or the Patlak method for FTHA [Patlak and Blasberg, 1985]. […]
Plasma and tissue assays. Plasma insulin, triglyceride (TG) and NEFA levels were measured as previously described [Menard et al., 2009]. […]

[2] = system: CD36^+/+ and CD36^−/− mice; experiment: Myocardial metabolic rate of glucose by μPET with [18F]-FDG; settings: 6 hours reperfusion; in words
Procedure: as §1, with “After 30 minutes, the PE10 tubing was removed allowing reperfusion. The lungs were reinflated and the chest wound closed layer by layer before extubation. At 6 hours following reperfusion, mice were anesthetized (isoflurane), a blood sample withdrawn, and the heart arrested in diastole by an intravenous injection of 1 M KCl (0.5 mL). Hearts were immediately frozen at −80° C. unless otherwise stated.” left out
as §2

[3] = system: circulating blood leukocytes; experiment: Opsonized zymosan-stimulated luminol-enhanced whole blood chemiluminescence; settings: 48 hours reperfusion; CD36^+/+ mice; 10-week pretreatment; p<0.05
Procedure: as §1, with “The lungs were reinflated and the chest wound closed layer by layer before extubation. At 6 hours following reperfusion, mice were anesthetized (isoflurane), a blood sample withdrawn, and the heart arrested in diastole by an intravenous injection of 1 M KCl (0.5 mL). Hearts were immediately frozen at −80° C. unless otherwise stated.” left out
Whole blood chemiluminescence. […] The chemiluminescence signals were recorded using a computer-assisted luminometer (model 500; Chronolog Corp, Havertown, Pa., USA). Chemiluminescence intensities were measured as the peak amplitude in arbitrary units.

HAIC-2MeDTrp-DLys-Trp-DPhe-Lys-NH2 [EP 80317]
total plasma NEFA uptake (Km) ([1]; CD36^+/+ mice): reduced
mean fractional uptake rate (Ki) of plasma NEFA ([1]; CD36^+/+ or CD36^−/− mice): not affected
net fatty acid uptake (Km) ([1]; CD36^−/− mice): not modulated
myocardial metabolic rate of glucose (MMRG) [2]: not modulated
reduction of circulating blood leukocyte priming and/or activation [3]: 53%
